Legend:
[1] = Dissociation constant was determined; assay type: physicochemical
B16 [2] = assay: In vitro antiproliferative activity against Murine B16 Melanoma cells in presence of 1 mM uridine at a dose of 1 mM; assay type: functional, Mus musculus
B16 [3] = assay: In vitro antiproliferative activity against Murine B16 Melanoma cells in presence of 1 mM uridine at a dose of 2 mM; assay type: functional, Mus musculus
B16 [4] = assay: In vitro antiproliferative activity against Murine B16 Melanoma cells in presence of 1 mM uridine at a dose of 0.12 mM; assay type: functional, Mus musculus
B16 [5] = assay: In vitro antiproliferative activity against Murine B16 Melanoma cells in presence of 1 mM uridine at a dose of 0.25 mM; assay type: functional, Mus musculus
B16 [6] = assay: In vitro antiproliferative activity against Murine B16 Melanoma cells in presence of 1 mM uridine at a dose of 0.5 mM; assay type: functional, Mus musculus
B16 [7] = assay: In vitro antiproliferative activity against Murine B16 Melanoma cells without uridine at a dose of 0.12 mM; assay type: functional, Mus musculus
B16 [8] = assay: In vitro antiproliferative activity against Murine B16 Melanoma cells without uridine at a dose of 0.25 mM; assay type: functional, Mus musculus
B16 [9] = assay: In vitro antiproliferative activity against Murine B16 Melanoma cells without uridine at a dose of 0.5 mM; assay type: functional, Mus musculus
B16 [10] = assay: In vitro antiproliferative activity against Murine B16 Melanoma cells without uridine at a dose of 1 mM; assay type: functional, Mus musculus
B16 [11] = assay: In vitro antiproliferative activity against Murine B16 Melanoma cells without uridine at a dose of 2 mM; assay type: functional, Mus musculus
B16 [12] = assay: In vitro antiproliferative activity against Murine B16 Melanoma cells in presence of 1 mM uridine at a dose of 10 mM; assay type: functional, Mus musculus
B16 [13] = assay: In vitro antiproliferative activity against Murine B16 Melanoma cells without uridine at a dose of 0.01 mM; assay type: functional, Mus musculus
B16 [14] = assay: In vitro antiproliferative activity against Murine B16 Melanoma cells in presence of 1 mM uridine at a dose of 0.01 mM; assay type: functional, Mus musculus
B16 [15] = assay: In vitro antiproliferative activity against Murine B16 Melanoma cells in presence of 1 mM uridine at a dose of 0.1 mM; assay type: functional, Mus musculus
B16 [16] = assay: In vitro antiproliferative activity against Murine B16 Melanoma cells without uridine at a dose of 0.1 mM; assay type: functional, Mus musculus
B16 [17] = assay: In vitro antiproliferative activity against Murine B16 Melanoma cells without uridine at a dose of 10 mM; assay type: functional, Mus musculus

O=C1N[C@@H](CS)C[C@@H](C(=O)O)N1 (relative stereo) gave a Ki [1] of 0.2 µM, a Growth inhibition (B16 [2]) of 12% and a Growth inhibition (B16 [3]) of 18%. For the same molecule, the Growth inhibition (B16 [4]) was 0%, the Growth inhibition (B16 [5]) was 3% and the Growth inhibition (B16 [6]) was 4%. It also gave a Growth inhibition (B16 [7]) of 4%, a Growth inhibition (B16 [8]) of 9% and a Growth inhibition (B16 [9]) of 14%. For the same molecule, the Growth inhibition (B16 [10]) was 17% and the Growth inhibition (B16 [11]) was 22%.
O=C(O)C[C@H](NC(=O)CP(=O)(O)O)C(=O)O [PALA] showed a Growth inhibition (B16 [2]) of 9%, a Growth inhibition (B16 [12]) of 10% and a Growth inhibition (B16 [13]) of 16%. The Growth inhibition (B16 [14]) was 6%, the Growth inhibition (B16 [15]) was 6% and the Growth inhibition (B16 [16]) was 79%. The Growth inhibition (B16 [10]) was 86% and the Growth inhibition (B16 [17]) was 84%.
COC(=O)[C@@H]1C[C@H](CSC(C)=O)NC(=O)N1 (relative stereo) gave a Growth inhibition (B16 [2]) of 83%, a Growth inhibition (B16 [3]) of 98% and a Growth inhibition (B16 [4]) of 0%. It also gave a Growth inhibition (B16 [5]) of 2%, a Growth inhibition (B16 [6]) of 9% and a Growth inhibition (B16 [7]) of 0%. It also gave a Growth inhibition (B16 [8]) of 2%, a Growth inhibition (B16 [9]) of 28% and a Growth inhibition (B16 [10]) of 94%. The Growth inhibition (B16 [11]) was 96%.
